{"source": "patent US5849731A", "about": "“Indole derivatives and medical application thereof” (Toray Industries, Inc., priority 1995, dated 1998)", "key": {"δ-opioid": {"target": "T1, δ-opioid (Mus musculus, UniProt P32300)", "T1 construct": "Each of the vas deferens isolated from the mice was hung in a Magnus tube; from tissue; host or cells: isolated vas deferens of male ddy strain mice", "T1 sequence (P32300 whole entry)": "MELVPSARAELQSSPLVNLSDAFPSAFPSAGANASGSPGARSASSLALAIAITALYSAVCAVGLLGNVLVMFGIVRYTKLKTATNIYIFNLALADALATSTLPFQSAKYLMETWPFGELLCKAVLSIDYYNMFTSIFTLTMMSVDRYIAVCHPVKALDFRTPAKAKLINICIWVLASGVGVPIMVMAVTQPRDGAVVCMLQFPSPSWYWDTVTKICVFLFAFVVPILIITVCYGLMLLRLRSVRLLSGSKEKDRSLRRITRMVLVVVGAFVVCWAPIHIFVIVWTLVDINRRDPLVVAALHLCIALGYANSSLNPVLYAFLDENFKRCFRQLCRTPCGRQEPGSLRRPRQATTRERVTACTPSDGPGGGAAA", "test": "δ-opioid antagonism against DPDPE in mouse vas deferens (MVD)", "assay_type": "biochemical, mouse (male ddy strain)", "conditions": "for pA2: MVD, 100 nM sample compound added 20 minutes before cumulative DPDPE, Schild method", "experimental": "Using mouse vas deferens (MVD), antagonistic compounds were examined for antagonism against a δ-opioid agonist DPDPE, and agonistic compounds were examined for inhibitory activity against MVD contraction by electric stimulation, and for antagonism by a δ-opioid antagonist NTI.\nMale ddy strain mice were used in this experiment. Each of the vas deferens isolated from the mice was hung in a Magnus tube which was filled with a Krebes-Henseleit solution (NaCl […]; KCl 4.7 mM; CaCl2 2.5 mM; KH2 PO4 1.1 mM; NaHCO3 25 mM; glucose 11 mM), and aerated with a gas of 5% carbon dioxide and 95% oxygen and maintained at 37° C. Electric stimulation was applied through upper and lower ring-shaped platinum electrodes at 0.1 Hz and 5.0 mS. Tissue contraction was recorded on a polygraph using an isometric transducer.\nInitially, DPDPE was added in a cumulative manner to determine the IC50 value (concentration for 50% inhibition of contraction induced by electric stimulation). Next, 100 nM of a sample compound was added to the system beforehand, and 20 minutes later, DPDPE was added in a cumulative manner. According to the above procedure, the ratio of the IC50 value of DPDPE in the presence of the sample compound to that in the absence of it was determined, and the pA2 value was calculated in accordance with the Schild, et al.'s method [Schild, H. O., Br. J. Pharamacol. Chamother. 4, 277 (1949)]."}, "capsaicin-induced cough": {"system": "capsaicin-induced cough", "test": "Antitussive action in rat, capsaicin-induced cough", "assay_type": "in vivo", "conditions": "ip, 0.5 h, dosage for 50% cough inhibition, intraperitoneal, 10% DMSO solution, 30 minutes after administration", "experimental": "Evaluation of Antitussive Action in Rat as a Model for Capsaicin-Induced Cough\nCough was induced by forcing rats to inhale capsaicin (60 μM) which was nebulized by an ultrasonic nebulizer, and fed to caps over the rats' heads through silicone tubes by a respirator. Capsaicin was fed for inhalation at a rate of 70 times/min. and 10 ml each time.\nTwo hundred and seventy minutes before the drug administration, capsaicin was inhaled for 5 minutes, and inducement of coughing was confirmed during this period. Thirty minutes after the drug administration, capsaicin was inhaled for 5 minutes, and the number of induced coughs during capsaicin inhalation was counted. Antitussive effect was evaluated by determining an inhibitory ratio, namely, the ratio of the number of coughs after the drug administration to that before the drug administration. Capsaicin was dissolved in saline. Each drug was dissolved in a 10% DMSO solution and intraperitoneally administered. The effect of the drug is expressed with an ED50 value which is the dosage for 50% cough inhibition"}}, "data": [{"smiles": "Oc1ccc2c3c1O[C@H]1c4c(c5ccc6cccc7c6c5n4CC7)C[C@@]4(O)[C@@H](C2)N(CC2CC2)CC[C@]314", "note": "[Compound 2, 17-cyclopropylmethyl-6,7-didehydro-4,5α-epoxy-3,14β-dihydroxy-1',3\"-ethylene-6',7'-benzo-6,7,2',3'-indolomorphinan]", "values": [{"measurement": "Kb", "setting": "δ-opioid", "value": 2, "unit": "nM"}, {"measurement": "ED50", "setting": "capsaicin-induced cough", "value": 1.71, "unit": "µg/kg"}]}, {"smiles": "Oc1ccc2c3c1O[C@H]1c4c(c5cccc6c5n4Cc4ccccc4-6)C[C@@]4(O)[C@@H](C2)N(CC2CC2)CC[C@]314", "note": "[Compound 3, 17-cyclopropylmethyl-6,7-didehydro-4,5α-epoxy-3,14β-dihydroxy-1',7'-(2\",3\"-benzotrimethylene)-6,7,2',3'-indolomorphinan]", "values": [{"measurement": "Kb", "setting": "δ-opioid", "value": 2.51, "unit": "nM"}, {"measurement": "ED50", "setting": "capsaicin-induced cough", "value": 4.37, "unit": "µg/kg"}]}, {"smiles": "Oc1ccc2c3c1O[C@H]1c4c(c5cccc6c5n4CCC6)C[C@@]4(O)[C@@H](C2)N(CC2CC2)CC[C@]314", "note": "[Compound 4, 17-cyclopropylmethyl-6,7-didehydro-4,5α-epoxy-3,14β-dihydroxy-1',7'-trimethylene-6,7,2',3'-indolomorphinan]", "values": [{"measurement": "Kb", "setting": "δ-opioid", "value": 0.398, "unit": "nM"}, {"measurement": "ED50", "setting": "capsaicin-induced cough", "value": 8.58, "unit": "µg/kg"}]}, {"smiles": "Cc1ccc2c3c1c1c(n3CCC2)[C@@H]2Oc3c(O)ccc4c3[C@@]23CCN(CC2CC2)[C@H](C4)[C@]3(O)C1", "note": "[Compound 5, 17-cyclopropylmethyl-6,7-didehydro-4,5α-epoxy-3,14β-dihydroxy-1',7'-trimethylene-4'-methyl-6,7,2',3'-indolomorphinan]", "values": [{"measurement": "Kb", "setting": "δ-opioid", "value": 5.01, "unit": "nM"}, {"measurement": "ED50", "setting": "capsaicin-induced cough", "value": 20.8, "unit": "µg/kg"}]}, {"smiles": "COc1ccc2c3c(n4c2c1CCC4)[C@@H]1Oc2c(O)ccc4c2[C@@]12CCN(CC1CC1)[C@H](C4)[C@]2(O)C3", "note": "[Compound 6, 17-cyclopropylmethyl-6,7-didehydro-4,5α-epoxy-3,14β-dihydroxy-1',7'-trimethylene-6'-methoxy-6,7,2',3'-indolomorphinan]", "values": [{"measurement": "Kb", "setting": "δ-opioid", "value": 3.16, "unit": "nM"}, {"measurement": "ED50", "setting": "capsaicin-induced cough", "value": 9.43, "unit": "µg/kg"}]}, {"smiles": "Cc1cc2c3c(c1)c1c(n3CCC2)[C@@H]2Oc3c(O)ccc4c3[C@@]23CCN(CC2CC2)[C@H](C4)[C@]3(O)C1", "note": "[Compound 7, 17-cyclopropylmethyl-6,7-didehydro-4,5α-epoxy-3,14β-dihydroxy-1',7'-trimethylene-5'-methyl-6,7,2',3'-indolomorphinan]", "values": [{"measurement": "Kb", "setting": "δ-opioid", "value": 5.01, "unit": "nM"}, {"measurement": "ED50", "setting": "capsaicin-induced cough", "value": 16.3, "unit": "µg/kg"}]}, {"smiles": "Oc1ccc2c3c1O[C@H]1c4c(c5cccc6c5n4CCCC6)C[C@@]4(O)[C@@H](C2)N(CC2CC2)CC[C@]314", "note": "[Compound 9, 17-cyclopropylmethyl-6,7-didehydro-4,5α-epoxy-3,14β-dihydroxy-1',7'-tetramethylene-6,7,2',3'-indolomorphinan]", "values": [{"measurement": "pA2", "setting": "δ-opioid", "value": 8.5}, {"measurement": "ED50", "setting": "capsaicin-induced cough", "value": 12.2, "unit": "µg/kg"}]}, {"smiles": "Oc1ccc2c3c1O[C@H]1c4c(c5cc(F)cc6c5n4CCC6)C[C@@]4(O)[C@@H](C2)N(CC2CC2)CC[C@]314", "note": "[Compound 10, 17-cyclopropylmethyl-6,7-didehydro-4,5α-epoxy-3,14β-dihydroxy-1',7'-trimethylene-5'-fluoro-6,7,2',3'-indolomorphinan]", "values": [{"measurement": "Kb", "setting": "δ-opioid", "value": 1.58, "unit": "nM"}, {"measurement": "ED50", "setting": "capsaicin-induced cough", "value": 15.7, "unit": "µg/kg"}]}, {"smiles": "COc1ccc2c3c1O[C@H]1c4c(c5cccc6c5n4CCC6)C[C@@]4(O)[C@@H](C2)N(CC2CC2)CC[C@]314", "note": "[Compound 11, 17-Cyclopropylmethyl-6,7-didehydro-4,5α-epoxy-3-methoxy-14β-hydroxy-1',7'-trimethylene-6,7,2',3'-indolomorphinan]", "values": [{"measurement": "pA2", "setting": "δ-opioid", "value": 8.2}, {"measurement": "ED50", "setting": "capsaicin-induced cough", "value": 3.43, "unit": "µg/kg"}]}]}
